According to ChEMBL document CHEMBL3507680, “University of Dundee, Gates Library screen for HepG2 cell viability”:

assay: Human HepG2 cell viability assay in 384 well format; assay type: toxicity, cell-based; parameters: dose 125 nL, time 70.5 hour; concentration not given beside the values; conditions: HepG2 cells, read-out: Inhibition

SMILES	cytotoxicity at 70.5 h [%]
CC(C)Oc1cccc(C(=O)C2CCCN(C(=O)c3ccccn3)C2)c1 (centres undefined)	-8.75
Nc1ncc(C(=O)N2CCC3(CCCO3)CC2)c(-c2ccccc2)n1	-2.3
Cc1cc(C(=O)N2CCN(C(=O)CC(C)C)[C@@H]3CS(=O)(=O)C[C@@H]32)no1	-11.9
CC(C)c1nc(CN(C)C(=O)C(O)c2ccc(Cl)cc2)cs1 (centres undefined)	-0.849
CN(C)CC(Nc1nc(N)nc2c1CCNCC2)c1ccccc1 (centres undefined)	-18.8
CC1(C)Cc2c(cnn2-c2cccc(F)c2)C(NC2CCSCC2)C1 (centres undefined)	9.46
CN1CCC(N(C)C[C@H]2CC[C@@H](Cc3ccc4occc4c3)O2)CC1	3.05
COc1cccc([C@H]2CN(C(=O)c3noc4c3CCCC4)C[C@@H]2N)c1	-3.29
CC(c1ccncn1)N(C)Cc1cc2cc3c(cc2[nH]c1=O)OCO3 (centres undefined)	3.45
CCc1nn(C)c(Cl)c1CN1CCCC2(CC1)CN(C)C(=O)O2 (centres undefined)	-14.9
Cc1cccnc1CC(C)Nc1nc(N)nc2c1CCNC2 (centres undefined)	2.93
O=C(c1cc(COc2ccc3c(c2)OCO3)[nH]n1)N1CCCCO1	20.1
CC[C@@]1(O)CCN(Cc2cc(C3CCCCC3)no2)C[C@H]1O	-2.92
COc1ccc(OCc2cc(C(=O)N3CCOCC3)n[nH]2)c(Cl)c1	-2.87
Cc1cc2[nH]c(=O)oc2cc1S(=O)(=O)N1CCCC(N(C)C)CC1 (centres undefined)	-2.95
COc1cccc(Cl)c1C(C(=O)O)N(C)Cc1nnc(C)o1 (centres undefined)	11.6
Cc1cc(Cl)ccc1C(=O)N1C[C@H](C2CC2)[C@@H](N)C1	-1.61
CCc1nc2c(c(NC3CCC3)n1)CCN(C(=O)CO)CC2	0.47
CCOCc1nc2c(c(NC(CC)c3cccnc3)n1)CCNCC2 (centres undefined)	-3.13
Cc1cc2c(c(-c3c[nH]c(C)n3)c1)OC(CN)C2 (centres undefined)	2.12
CN(c1ccc(-c2nc(C3CC3)no2)cn1)C1CCOCC1	-3.42
CC(=O)c1ccc(C(=O)N2C[C@@H]3CC[C@H](C2)N(CC2CCC2)C3)s1	-3.03
CN1CCN(Cc2n[nH]c(=O)n2CC2CCCCC2)CC1	-6.17
CN(Cc1ccccc1)C1(C(=O)NC(CO)CO)Cc2ccccc2C1	1.88
Cc1nc(C)n(CCCn2ccnc2-c2cc3n(n2)CCCNC3)n1	-11
Nc1nc2c(c(=O)[nH]1)CCN(C(=O)c1ccccc1N1CCCC1)C2	0.043
Nc1nc2c(c(NCc3nccs3)n1)CCN(CC1CCCC1)CC2	-17.1

SMILES	cytotoxicity at 70.5 h [%]
CC(C)n1ccnc1CN1CCOC(CC2CCCCC2)C1 (centres undefined)	5.36
CC(C)(C)c1ncc2c(n1)CN(C(=O)C(C)(C)n1cccc1)C2	-6.39
Cc1noc(C)c1CN1C(=O)[C@H]2CC[C@@H]1CN(Cc1nccs1)C2	0.0707
CN1CCN(C(=O)N2CCCC(c3nccn3CC3CCC3)C2)CC1 (centres undefined)	-15.8
N#Cc1cccc(N2CCC(CO)(CCCc3ccccc3)CC2)n1	-4.41
Cn1cccc1C(=O)N1CCC2(CCCN(CC3CCC3)C2=O)C1 (centres undefined)	-2.25
Cc1csc(CN(C)c2cc(C)nc3c(C)c(C)nn23)n1	-7.34
CCc1nc(NC2CCCN(C(=O)C3CC3)C2)c2cnn(C)c2n1 (centres undefined)	-15.4
O=C(O)c1cnc(N2CCC(c3nccn3CC3CC3)CC2)c(Cl)c1	-8.03
COc1ccc(Cl)cc1CN(C)C(=O)CN1C(=O)CCC1C (centres undefined)	-9.27
O=C(O)c1ccnc(-c2ccnc(NCCc3cscn3)n2)c1	-2.9
Cc1c(-c2nc3cc(S(=O)(=O)N4CCCC4)ccc3n2C)cnn1C	-22.4
Cc1nn(C)c2ncnc(N3CCCC(OCc4ccccn4)C3)c12 (centres undefined)	1.57
CC(CO)CN(Cc1ccccc1)C(=O)c1csc(CN(C)C)n1 (centres undefined)	-3.43
NC(=O)c1ccc(N2CCN(Cc3c(Cl)cncc3Cl)CC2)nc1	10.8
Cc1cc(C)n(CC(C)NC2CCN(Cc3cccnc3)CC2)n1 (centres undefined)	-7.19
CC1CCCN(c2ccc(C(N)=O)cc2NC(=O)CC2=CCNCC2)C1 (centres undefined)	-17.5
CN(CCC1CCOCC1)C(=O)C1CCC(=O)N(Cc2ccccn2)C1 (centres undefined)	13.4
COCCN1CCC(c2nc3c([nH]2)CCCNC3=O)CC1	-8.24
c1ccc(C2CN(C3CC3)CC3(CCN(Cc4cscn4)CC3)C2)cc1 (centres undefined)	-5.25
Nc1cc(N2CCCC(COc3ccc(F)cc3)C2)nc(N)n1 (centres undefined)	-2.71
O=c1c2cccc(C(F)(F)F)c2ncn1CCN1CCNCC1	-1.89
Cc1nc2c(N3CCC(O)(Cn4ccnc4)CC3)ncnc2o1	-0.124
COCc1nc(CNC2CCSC2)no1 (centres undefined)	-2.87
Fc1cccnc1Oc1cc(F)c(CN2CCCC2)c(Cl)c1	22.4
CN(CC(=O)N1CC(Oc2ccccc2Cl)C1)Cc1ccncc1	12.8
COC1CCCN(C2CCN(c3cccc(-c4csc(C)n4)c3)CC2)C1 (centres undefined)	-1.69

SMILES	cytotoxicity at 70.5 h [%]
Cc1sc2nc(CCN)nc(N3CCC(N4CCCC4)CC3)c2c1C	-4.21
CCCNC(=O)c1ccc(S(=O)(=O)NCC2(O)CCCNC2)cc1 (centres undefined)	-5.48
CCc1nnc(CNC(=O)CCCN2CCCCC2)s1	-0.919
COc1nc2c(cc1C(=O)N1CCCOC(Cn3cccn3)C1)CCC2 (centres undefined)	-2.14
COc1cccc(CN2CCN(Cc3ccc4nonc4c3)CC2=O)c1	-0.956
N[C@H]1CN(C(=O)c2ccc3[nH]c(CO)nc3c2)C[C@@H]1c1ccccc1	-19.4
CN(Cc1cccnc1)C[C@H]1CC[C@@H](Cc2ccc3c(cnn3C)c2)O1	-10.4
CC(=O)NCC(=O)N1Cc2c(-c3cccc(C)c3)nc(N)nc2C1C (centres undefined)	-13.1
CCOc1ccc(CN2CCNC(C(=O)NC3CC3)C2)cc1CO (centres undefined)	-10.9
Cc1c(CN2CCCC(C(=O)c3ccc(C(C)(C)C)cc3)C2)cnn1C (centres undefined)	-4.49
O=C(NCCOc1ccccc1)C1NCCc2[nH]cnc21 (centres undefined)	-7.83
O=C1CN(Cc2cnc3c(-c4ccccc4)cnn3c2)CCCN1	-6.12
CCN1CCN(S(=O)(=O)N2CCc3ccccc3C2)[C@H]2CS(=O)(=O)C[C@H]21	-9.8
O=C(c1cnc(COc2ccccc2)nc1O)N1CCOCC1	-5.87
CN1CCCN(C(=O)c2ccc3c(c2)nc(N2CCOCC2)n3C)CC1	-8.33
CCn1nc(CC(C)C)cc1C(=O)N1CC[C@@H](O)C1	-3.86
COCC(=O)N1Cc2cnc(Cc3ccc(OC)cc3)nc2C1	1.24
CN(CCN1CCCCCC1)C(=O)c1cc(CN2CCC(O)CC2)on1	-0.511
O=C(NCc1cc(O)ncn1)C1COc2ccccc2C1 (centres undefined)	-8.68
COc1ncc(C2CC(=O)NCc3nc4ccccn4c32)cn1 (centres undefined)	-13.5
Cc1cnccc1N1CCCN(C(=O)CCCS(N)(=O)=O)CC1	3.54
CCN1CCC2(CCC1=O)CN(c1ccnc(SC)n1)CCN2C (centres undefined)	3.52
COC(=O)NCc1cc2n(n1)CCCN(C(C)=O)C2	-7.46
O=C(O)c1cc(-c2cccnc2)cc(S(=O)(=O)N2CCCCCC2)c1	-11.7
Cc1cc(N2CCCN(C(=O)Cc3ccc(O)c(Cl)c3)CC2)ccn1	-4.07
